Measurements from US9266895B2, “Substituted pyrazolo[3,4-d]pyrimidines as kinase inhibitors” (PRINCIPIA BIOPHARMA INC., priority 2012, dated 2016).

Biological target: BTK (Homo sapiens (Human), UniProt Q06187)
Experiment: Reversibility of binding (compound in solution by HPLC-MS/MS before and after target perturbation)
Protocol: The following approach was developed to differentiate compounds that form irreversible covalent bond with their targets, such as non-cyano containing acrylamide compounds, from compound that form reversible covalent bond i.e., compounds and/or pharmaceutically acceptable salts of the present disclosure. […] The reactions were then treated with perturbations including both denaturation with 5 M guanidine hydrochloride and digestion with trypsin, disrupting proper folding of the target. […] The concentration of compound in solution was assessed both preceding and following perturbation using high performance liquid chromatography (HPLC) coupled to tandem mass spectrometry.

BTK, sequence (Q06187 whole entry): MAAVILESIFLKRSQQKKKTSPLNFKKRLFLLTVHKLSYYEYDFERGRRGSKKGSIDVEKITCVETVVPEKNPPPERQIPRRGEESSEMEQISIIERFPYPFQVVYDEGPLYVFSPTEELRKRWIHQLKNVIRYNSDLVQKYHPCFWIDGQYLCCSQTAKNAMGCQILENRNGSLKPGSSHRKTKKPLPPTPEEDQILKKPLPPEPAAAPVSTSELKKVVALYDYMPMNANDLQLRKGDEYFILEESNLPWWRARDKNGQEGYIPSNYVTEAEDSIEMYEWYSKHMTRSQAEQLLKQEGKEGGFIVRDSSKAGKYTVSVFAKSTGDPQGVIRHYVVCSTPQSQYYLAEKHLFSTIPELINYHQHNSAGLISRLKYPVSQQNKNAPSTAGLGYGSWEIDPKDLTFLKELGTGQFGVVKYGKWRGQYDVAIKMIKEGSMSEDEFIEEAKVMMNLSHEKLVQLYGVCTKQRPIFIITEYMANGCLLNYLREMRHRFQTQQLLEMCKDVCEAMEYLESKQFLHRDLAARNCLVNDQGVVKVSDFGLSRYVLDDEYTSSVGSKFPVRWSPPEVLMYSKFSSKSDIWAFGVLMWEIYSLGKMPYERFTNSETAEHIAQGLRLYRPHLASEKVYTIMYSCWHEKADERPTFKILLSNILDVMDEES

In the case of CN(C1COC1)C(C)(C)C=C(C#N)C(=O)N1CCC[C@H]1Cn1nc(-c2ccc(Oc3ccccc3)cc2F)c2c(N)ncnc21 [Example 10, 2-[(2S)-2-[[4-amino-3-(2-fluoro-4-phenoxy-phenyl)pyrazolo[3,4-d]pyrimidin-1-yl]methyl]pyrrolidine-1-carbonyl]-4-methyl-4-[methyl(oxetan-3-yl)amino]pent-2-enenitrile], the “Compound in solution in the denatured or digested state?” value (after 5 M guanidine hydrochloride denaturation or trypsin digestion) is reported as “yes” and the “Compound in solution in the native state?” value (target in excess, native state) is reported as “no”.
